Data reported in BindingDB's records for doi:10.1016/S0960-894X(01)80539-4 (1994).

Molecular target: Sigma-1 receptor (Cavia porcellus)
Test: In vitro binding affinity towards sigma receptor by the displacement of [3H]PPP from guinea pig brain

Structure (SMILES) | IC50 [µM]
NC(CCCN1CCN(c2ncc(F)cn2)CC1)C1CCCCC1 (configuration not stated) [1-Cyclohexyl-4-[4-(5-fluoro-pyrimidin-2-yl)-piperazin-1-yl]-butylamine] | 0.052
Fc1ccc(CCCCN2CCN(c3ncc(F)cn3)CC2)cc1 [5-Fluoro-2-{4-[4-(4-fluoro-phenyl)-butyl]-piperazin-1-yl}-pyrimidine] | 0.023
OC(CCCN1CCN(c2ncc(F)cn2)CC1)c1ccc(F)c2ccccc12 (configuration not stated) [1-(4-Fluoro-naphthalen-1-yl)-4-[4-(5-fluoro-pyrimidin-2-yl)-piperazin-1-yl]-butan-1-ol] | 0.088
Fc1ccc(OCCCN2CCN(c3ncc(F)cn3)CC2)cc1 [5-Fluoro-2-{4-[3-(4-fluoro-phenoxy)-propyl]-piperazin-1-yl}-pyrimidine] | 0.089
O=C(OC(CCCN1CCN(c2ncc(F)cn2)CC1)c1ccc(F)cc1)c1ccccc1 (configuration not stated) [Benzoic acid 1-(4-fluoro-phenyl)-4-[4-(5-fluoro-pyrimidin-2-yl)-piperazin-1-yl]-butyl ester] | 3.5
CC(=O)NC(CCCN1CCN(c2ncc(F)cn2)CC1)c1ccc(F)cc1 (configuration not stated) [N-{1-(4-Fluoro-phenyl)-4-[4-(5-fluoro-pyrimidin-2-yl)-piperazin-1-yl]-butyl}-acetamide] | > 0.049
Fc1ccc(SCCCN2CCN(c3ncc(F)cn3)CC2)cc1 [5-Fluoro-2-{4-[3-(4-fluoro-phenylsulfanyl)-propyl]-piperazin-1-yl}-pyrimidine] | 0.051
O=C(NC(CCCN1CCN(c2ncc(F)cn2)CC1)c1ccc(F)cc1)c1ccc(F)cc1 (configuration not stated) [4-Fluoro-N-{1-(4-fluoro-phenyl)-4-[4-(5-fluoro-pyrimidin-2-yl)-piperazin-1-yl]-butyl}-benzamide] | > 0.1
NC(CCCN1CCN(c2ncc(F)cn2)CC1)c1ccc(F)c2ccccc12 (configuration not stated) [1-(4-Fluoro-naphthalen-1-yl)-4-[4-(5-fluoro-pyrimidin-2-yl)-piperazin-1-yl]-butylamine] | 0.215
O=C(NC(CCCN1CCN(c2ncc(F)cn2)CC1)C1CCCCC1)c1ccc(F)cc1 (configuration not stated) [N-{1-Cyclohexyl-4-[4-(5-fluoro-pyrimidin-2-yl)-piperazin-1-yl]-butyl}-4-fluoro-benzamide] | > 0.002
OC(CCCN1CCN(c2ncc(F)cn2)CC1)C1CCCCC1 (configuration not stated) [1-Cyclohexyl-4-[4-(5-fluoro-pyrimidin-2-yl)-piperazin-1-yl]-butan-1-ol] | 0.012
O=S(=O)(CCCN1CCN(c2ncc(F)cn2)CC1)c1ccc(F)cc1 [5-Fluoro-2-{4-[3-(4-fluoro-benzenesulfonyl)-propyl]-piperazin-1-yl}-pyrimidine] | > 0.045
